# Reference: patent US20240398771A1, “TREATMENT OF SCLERODERMA AND RAYNAUD'S SYNDROME” (Aisa Pharma, Inc., priority 2023, published 2024)
# Experiments:
# participants with SSc-RP [1] = experiment: Average duration of weekly symptomatic RP attacks (minutes); format: in vivo, human; conditions: ITT Part A, Baseline RCS subgroup 1 (Table B-3, stratum not given)
# Source text: (§1) The relevant metrics measured by this tool daily are: • Study medication • SSc-RP symptoms (Reporting an attack including duration of attack) • Severity of the attack considering all symptoms of the attack e.g. tingling, numbness, pain, color changes (VAS 0-10 cm scale) • Participant's location at the time of the attack (inside home/outside home) • Selecting symptoms experienced during the attack (tingling, numbness, pain, color changes, other) • Pain rating during the attack (11-point Likert scale) • The RCS based on how much difficulty participants had with Raynaud's today, how many attacks the participant had, and how long they lasted. Participants will also be asked to consider how much pain, numbness, or other symptoms the Raynaud's caused in fingers (including painful sores), and how much the Raynaud's alone affected the use of hands today (VAS 0-10 cm scale).
# The absolute change in average duration of weekly RP attacks from baseline to the end of each dosing period was and will be a secondary outcome variable. The sponsor-developed participant-informed diary was and will be used to record data. Average duration of weekly RP attacks is defined as the total duration of RP attacks divided by total number of RP attacks within the last 7 days of each dosing period. Total duration of RP attacks during the last 7 days of screening period divided by the total number of RP attacks will be used as baseline for the analysis of all periods. The variable will be calculated similar to frequency data as before.
# participants with SSc-RP [2] = experiment: Average daily Raynaud's Condition Score (RCS); format: in vivo, human; parameters: key to Average Daily RCS: Baseline, Mean / Average Daily RCS: Baseline, Median: daily RCS on VAS 0-10 cm scale; conditions: excluding outliers, ITT Part A
# Source text: as §1
# The RCS is based on how much difficulty participants had with Raynaud's today, how many attacks the participant had, and how long they lasted. In addition participants were and will be asked to consider how much pain, numbness, or other symptoms the Raynaud's caused in fingers (including painful sores), and how much the Raynaud's along affected the use of hand today (VAS 0-10 cm scale).
# The absolute change in average daily RCS from baseline to the end of each dosing period was and will be a secondary outcome variable. The sponsor-developed participant-informed diary has been and will be used to record data. The average daily RCS is defined as the total RCS divided by the number of days with available diary data of each dosing period. Total RCS during screening period divided by the number of days with available data will be used as baseline for the analysis of all periods. If there are multiple daily RCS scores, the latest daily RCS will be used. The variable will be calculated similar to frequency data as before.
# [3] = last 7 days of dosing period, listed as Cilnidipine 10 mg
# [4] = last 7 days of dosing period, listed as Cilnidipine 20 mg
# [5] = last 7 days of dosing period, listed as Pooled Cilnidipine
# [6] = last 7 days of screening period, listed as Cilnidipine 10 mg
# [7] = last 7 days of screening period, listed as Cilnidipine 20 mg
# [8] = last 7 days of screening period, listed as Pooled Cilnidipine
# [9] = Pooled Cilnidipine 20 mg and Cilnidipine 20 mg + Tadalafil 5 mg
structure (smiles),measurement,setting,value
"COCCOC(=O)C1=C(C)NC(C)=C(C(=O)OC/C=C/c2ccccc2)C1c1cccc([N+](=O)[O-])c1 (stereo not shown) [Cilnidipine, 1,4-dihydro-2,6-dimethyl,4-(3-nitrophenyl)-3,5-pyridinedicarboxylic acid 2-methoxyethyl (2 E)-3-phenyl-2-propenyl ester]","Average duration of weekly symptomatic RP attacks, Change from Baseline, Max",participants with SSc-RP [1]; [3],"−16.7, −16.7 minutes"
same,"Average duration of weekly symptomatic RP attacks, Change from Baseline, Q1",participants with SSc-RP [1]; [3],"−16.74, −16.74 minutes"
same,"Average duration of weekly symptomatic RP attacks, Change from Baseline, Q3",participants with SSc-RP [1]; [3],"−16.74, −16.74 minutes"
same,"Average duration of weekly symptomatic RP attacks, Percent Change from Baseline, Max",participants with SSc-RP [1]; [3],"−34.6, −34.6%"
same,"Average duration of weekly symptomatic RP attacks, Percent Change from Baseline, Min",participants with SSc-RP [1]; [3],"−34.6, −34.6%"
same,"Average duration of weekly symptomatic RP attacks, Percent Change from Baseline, Q3",participants with SSc-RP [1]; [3],"−34.60, −34.60%"
same,Average Duration of weekly symptomatic RP attacks,participants with SSc-RP [1]; [4],3.0 min
same,"Average Duration of weekly symptomatic RP attacks, Max",participants with SSc-RP [1]; [4],30.5 min
same,"Average Duration of weekly symptomatic RP attacks, Q1",participants with SSc-RP [1]; [4],3.00 min
same,"Average Duration of weekly symptomatic RP attacks, Q3",participants with SSc-RP [1]; [4],30.45 min
same,"Average duration of weekly symptomatic RP attacks, Change from Baseline",participants with SSc-RP [1]; [4],-10.3 min
same,"Average duration of weekly symptomatic RP attacks, Change from Baseline, Max",participants with SSc-RP [1]; [4],4.1 min
same,"Average duration of weekly symptomatic RP attacks, Change from Baseline, Q1",participants with SSc-RP [1]; [4],-10.33 min
same,"Average duration of weekly symptomatic RP attacks, Change from Baseline, Q3",participants with SSc-RP [1]; [4],4.07 min
same,"Average duration of weekly symptomatic RP attacks, Percent Change from Baseline, Max",participants with SSc-RP [1]; [4],15.4%
same,"Average duration of weekly symptomatic RP attacks, Percent Change from Baseline, Min",participants with SSc-RP [1]; [4],−77.5%
same,"Average duration of weekly symptomatic RP attacks, Percent Change from Baseline, Q1",participants with SSc-RP [1]; [4],−77.50%
same,Average Duration of weekly symptomatic RP attacks,participants with SSc-RP [1]; [5],3.0 min
same,"Average Duration of weekly symptomatic RP attacks, Max",participants with SSc-RP [1]; [5],31.6 min
same,"Average Duration of weekly symptomatic RP attacks, Q1",participants with SSc-RP [1]; [5],3.00 min
same,"Average Duration of weekly symptomatic RP attacks, Q3",participants with SSc-RP [1]; [5],31.64 min
same,"Average duration of weekly symptomatic RP attacks, Change from Baseline",participants with SSc-RP [1]; [5],-16.7 min
same,"Average duration of weekly symptomatic RP attacks, Change from Baseline, Max",participants with SSc-RP [1]; [5],4.1 min
same,"Average duration of weekly symptomatic RP attacks, Change from Baseline, Q1",participants with SSc-RP [1]; [5],-16.74 min
same,"Average duration of weekly symptomatic RP attacks, Change from Baseline, Q3",participants with SSc-RP [1]; [5],4.07 min
same,"Average duration of weekly symptomatic RP attacks, Percent Change from Baseline, Max",participants with SSc-RP [1]; [5],15.4%
same,"Average duration of weekly symptomatic RP attacks, Percent Change from Baseline, Median",participants with SSc-RP [1]; [5],−34.60%
same,"Average duration of weekly symptomatic RP attacks, Percent Change from Baseline, Min",participants with SSc-RP [1]; [5],−77.5%
same,"Average duration of weekly symptomatic RP attacks, Percent Change from Baseline, Q1",participants with SSc-RP [1]; [5],−77.50%
same,"Average duration of weekly symptomatic RP attacks, Baseline, Max",participants with SSc-RP [1]; [6],"48.4, 48.4 minutes"
same,"Average duration of weekly symptomatic RP attacks, Baseline, Mean",participants with SSc-RP [1]; [6],48.38 min
same,"Average duration of weekly symptomatic RP attacks, Baseline, Median",participants with SSc-RP [1]; [6],48.38 min
same,"Average duration of weekly symptomatic RP attacks, Baseline, Min",participants with SSc-RP [1]; [6],"48.4, 48.4 minutes"
same,"Average duration of weekly symptomatic RP attacks, Baseline, Q1",participants with SSc-RP [1]; [6],"48.38, 48.38 minutes"
same,"Average duration of weekly symptomatic RP attacks, Baseline, Q3",participants with SSc-RP [1]; [6],"48.38, 48.38 minutes"
same,"Average duration of weekly symptomatic RP attacks, Baseline",participants with SSc-RP [1]; [7],13.3 min
same,"Average duration of weekly symptomatic RP attacks, Baseline, Max",participants with SSc-RP [1]; [7],26.4 min
same,"Average duration of weekly symptomatic RP attacks, Baseline, Mean",participants with SSc-RP [1]; [7],19.86 min
same,"Average duration of weekly symptomatic RP attacks, Baseline, Median",participants with SSc-RP [1]; [7],19.86 min
same,"Average duration of weekly symptomatic RP attacks, Baseline, Q1",participants with SSc-RP [1]; [7],13.33 min
same,"Average duration of weekly symptomatic RP attacks, Baseline, Q3",participants with SSc-RP [1]; [7],26.39 min
same,"Average duration of weekly symptomatic RP attacks, Baseline",participants with SSc-RP [1]; [8],13.3 min
same,"Average duration of weekly symptomatic RP attacks, Baseline, Max",participants with SSc-RP [1]; [8],48.4 min
same,"Average duration of weekly symptomatic RP attacks, Baseline, Mean",participants with SSc-RP [1]; [8],29.37 min
same,"Average duration of weekly symptomatic RP attacks, Baseline, Median",participants with SSc-RP [1]; [8],26.39 min
same,"Average duration of weekly symptomatic RP attacks, Baseline, Q1",participants with SSc-RP [1]; [8],13.33 min
same,"Average duration of weekly symptomatic RP attacks, Baseline, Q3",participants with SSc-RP [1]; [8],48.38 min
same,"Average Daily RCS: Baseline, Mean",participants with SSc-RP [2]; Cilnidipine 10 mg,2.74
same,"Average Daily RCS: Baseline, Median",participants with SSc-RP [2]; Cilnidipine 10 mg,2.74
same,"Average Daily RCS (dosing period), Mean",participants with SSc-RP [2]; Cilnidipine 20 mg,2.90
same,"Average Daily RCS (dosing period), Median",participants with SSc-RP [2]; Cilnidipine 20 mg,2.90
same,"Average Daily RCS: Baseline, Median",participants with SSc-RP [2]; Cilnidipine 20 mg,3.35
same,"Average Daily RCS: Baseline, Mean",participants with SSc-RP [2]; Pooled Cilnidipine 10 mg and Cilnidipine 10 mg + Tadalafil 5 mg,4.07
same,"Average Daily RCS (dosing period), Mean",participants with SSc-RP [2]; [9],3.60
same,"Average Daily RCS: Baseline, Mean",participants with SSc-RP [2]; [9],4.68
same,"Average Daily RCS: Baseline, Median",participants with SSc-RP [2]; [9],3.74
same,"Average Daily RCS: Baseline, Mean",participants with SSc-RP [2]; Pooled Cilnidipine,3.15
same,"Average Daily RCS: Baseline, Median",participants with SSc-RP [2]; Pooled Cilnidipine,2.80
